# In patent US4413126A, “Preparation of isoquinoline derivatives useful as immune regulants” (Eli Lilly and Company, priority 1982, dated 1983):
# Where a name gives a salt, the structure may show the parent alone. Read-outs that look alike come from different tables or passages of the source.
# Experiments:
# antibody titer = assay: Individual Serum Assay Procedure (mouse hemagglutinin, oral); assay type: in vivo, mouse (Swiss); details: read-out: Endpoint Dose (p < 0.05): lowest drug dose significantly lowering antibody titer
# antibody production = assay: Mouse Hemagglutinin assay, oral administration (pooled serum assay procedure); assay type: in vivo, mouse (Swiss); details: P.O., nine daily doses; for minimal effective dose: Mus musculus, po, read-out: MED (minimum effective dose: lowest drug dose producing 75 percent or greater antibody suppression)
# Protocol: Groups of five 20-gram, male, random-bred, Swiss mice received intravenous injections of 5×10^7 sheep red blood cells. The cells for these injections were prepared from lamb's blood (collected in Alsever's solution) by washing three times with 0.85 percent saline. Nine daily doses of each compound to be tested, solubilized in polyethylene glycol 400, were administered orally in 0.1 ml. doses, commencing three days prior to red blood cell injection. Several dose levels of each compound were employed, at 2-fold increments. A control group of mice, receiving a red blood cell injection and nine daily doses of vehicle instead of drug, was included. Six days after the antigen injections, the mice were bled by cardiac puncture and the blood from each 5-mouse group pooled. […] Following incubation of the trays for 3 hours at 37° C., the hemagglutination patterns were graded.
# GVH reaction = assay: Graft-Versus-Host (GVH) Reaction; assay type: in vivo, mouse (C57BL×C3H); details: for minimal effective dose: 312 h, read-out: Endpoint Dose (p < 0.05): lowest drug dose significantly lowering the spleen/body weight ratio
# Protocol: In this test, parental (C57BL) mouse spleen cells are injected into mice of an F1 hybrid strain (C57BL×C3H). […] As a consequence, the recipient's spleen becomes enlarged. Immunosuppression prevents or reduces this enlargement. Thus, spleen weights provide a measure of the GVH reaction and its reduction under immunosuppression.
# A modification of Simonsen's original procedure (Ann. N.Y. Acad. Sci., 73, 834 (1958) was employed. Large crops of spleen cells were obtained, without the generally employed manual teasing of spleens, by using Waring blendors with the cutting blades reversed. Two six-second blending periods buffeted the spleens (batches of 25 C57BL spleens in 25-ml. saline) sufficiently to free the cells from the connective tissue. The latter was removed by filtration through several thicknesses of cheesecloth. Cell suspensions prepared in this fashion were standardized, by means of Levy-Hausser chamber counts, to contain 6×10^8 nucleated cells per ml. Groups of ten 16-18 gram C57BL×C3H mice were injected intraperitoneally with 1 ml. of the donor cell suspension. The compounds were administered either orally (P.O.) or subcutaneously (S.C.) in a vehicle composed of saline containing 0.125% methylcellulose and 0.2% emulphor, commencing 3 days prior to cell injection and continuing daily for 13 days. Control animals received only cells and vehicle. The spleens were removed and weighed 10 days following cell injection, and the mg. spleen/gram body weight was calculated.
# The compounds were administered at several dose levels and the mean spleen/body weight ratio at each dose level was compared to the control group which received only the vehicle. The p values (by Student's two-tail t Test) were determined as compared to the control group. […] The results obtained in the graft-versus-host reaction with the compounds of this invention and standard compounds are summarized in Table III.
# [1] = system: adjuvant-induced arthritis; assay: Adjuvant-induced Arthritis Test in Rats: uninjected paw volume inflammation; assay type: in vivo, rat (Lewis-Wistar); details: days 11 through 25
# [2] = system: adjuvant-induced arthritis; assay: Adjuvant-induced Arthritis Test in Rats: bone damage by X-ray; assay type: in vivo, rat (Lewis-Wistar); details: X-ray day 25
# [3] = P.O., ten daily doses, mouse, individual serum
# [4] = po, P.O., daily for 13 days, mouse
smiles,measurement,setting,value
"O=c1c2cccc3cccc(c32)c2nc3cc(Cl)ccc3n12 [11-chloro, 11-chloro-7H-benzimidazo[2,1-a]benz[de]isoquinoline-7-one]",minimal effective dose,antibody titer; [3],0.2 mg/kg
same,MED (minimum effective dose: lowest drug dose producing 75 percent or greater antibody suppression),antibody production,0.4 mg./kg. × 9
same,minimal effective dose,"GVH reaction; Mus musculus, po",12.5 mg/kg
"O=c1c2cccc3cccc(c32)c2nc3ccc(Br)cc3n12 [10-bromo, 10-bromo-7H-benzimidazo[2,1-a]benz[de]isoquinoline-7-one]",minimal effective dose,antibody production,12.5 mg/kg
"O=c1c2cccc3cccc(c32)c2nc3cc(C(F)(F)F)ccc3n12 [11-trifluoromethyl, 11-(trifluoromethyl)-7H-benzimidazo[2,1-a]benz[de]isoquinoline-7-one]",minimal effective dose,antibody titer; [3],0.4 mg/kg
same,MED (minimum effective dose: lowest drug dose producing 75 percent or greater antibody suppression),antibody production,0.2 mg./kg. × 9
same,% Inhibition of uninjected paw volume inflammation (AUC),"[1]; Test 1, 100 mg./kg. P.O. × 24",85.8%
same,% Inhibition of uninjected paw volume inflammation (AUC),"[1]; Test 2, 50 mg./kg. P.O. × 24",55.9%
same,minimal effective dose,"GVH reaction; Mus musculus, po",12.5 mg/kg
same,minimal effective dose,"GVH reaction; sc, S.C., daily for 13 days, mouse",< 0.1 mg/kg
same,"inhibition of bone damage, injected paws",[2]; Test 1 (100 mg./kg. P.O. × 24),68%
same,"inhibition of bone damage, uninjected paws, compared to TB control group",[2]; Test 1 (100 mg./kg. P.O. × 24),94%
same,"inhibition of bone damage, injected paws",[2]; Test 2 (50 mg./kg. P.O. × 24),66%
same,"inhibition of bone damage, uninjected paws, compared to TB control group",[2]; Test 2 (50 mg./kg. P.O. × 24),88%
"O=c1c2cccc3cccc(c32)c2nc3ccc(C(F)(F)F)cc3n12 [10-trifluoromethyl, 10-(trifluoromethyl)-7H-benzimidazo[2,1-a]benz[de]isoquinoline-7-one]",minimal effective dose,antibody production,25 mg/kg
same,minimal effective dose,GVH reaction; [4],< 25 mg/kg
"O=P1(N(CCCl)CCCl)NCCCO1 (stereo not shown) [Cyclophosphamide, reference compound]",minimal effective dose,GVH reaction; [4],12.5 mg/kg
"C[n+]1c2cc(C(F)(F)F)ccc2n2c(=O)c3cccc4cccc(c43)c21 [13-methyl-7-oxo-11-(trifluoromethyl)-7H-benzimidazo[2,1-a]benz[de]isoquinolinium 4-methylbenzenesulfonate]",minimal effective dose,antibody titer; Mus musculus,12.5 mg/kg
same,minimal effective dose,antibody production,1.6 mg/kg
same,minimal effective dose,"GVH reaction; Mus musculus, po",12.5 mg/kg
"O=c1c2cccc3cccc(c32)c2nc3cc(F)ccc3n12 [11-fluoro, 11-fluoro-7H-benzimidazo[2,1-a]benz[de]isoquinoline-7-one]",minimal effective dose,antibody production,12.5 mg/kg
C[n+]1c2cc(Cl)ccc2n2c(=O)c3cccc4cccc(c43)c21,minimal effective dose,antibody production,100 mg/kg
"O=c1c2cccc3cccc(c32)c2nc3ccc(Cl)cc3n12 [10-chloro, 10-chloro-7H-benzimidazo[2,1-a]benz[de]isoquinoline-7-one]",minimal effective dose,antibody production,3.1 mg/kg
C[n+]1c2ccc(Cl)cc2n2c(=O)c3cccc4cccc(c43)c21,minimal effective dose,antibody production,> 100 mg/kg
"CN(Cc1cnc2nc(N)nc(N)c2n1)c1ccc(C(=O)N[C@@H](CCC(=O)O)C(=O)O)cc1 [Methotrexate, reference compound]",minimal effective dose,"GVH reaction; Mus musculus, po",0.2 mg/kg
O=c1c2cccc3cccc(c32)c2nc3cc(Cl)ccc3n12 [11-chloro(p-toluenesulfonate salt)],MED (minimum effective dose: lowest drug dose producing 75 percent or greater antibody suppression),antibody production,6.25 mg./kg. × 9
C[n+]1c2ccc(C(F)(F)F)cc2n2c(=O)c3cccc4cccc(c43)c21,minimal effective dose,antibody production,100 mg/kg
"C[C@]12CCC(=O)C=C1CC[C@@H]1[C@@H]2C(=O)C[C@@]2(C)[C@H]1CC[C@]2(O)C(=O)CO [Cortisone, reference compound]",minimal effective dose,GVH reaction; [4],3.1 mg/kg
"Cn1cnc([N+](=O)[O-])c1Sc1ncnc2nc[nH]c12 [Azathioprine, reference compound]",minimal effective dose,antibody titer; [3],100 mg/kg
same,minimal effective dose,antibody production,100 mg/kg
same,Endpoint Dose (p < 0.05): lowest drug dose significantly lowering the spleen/body weight ratio,"GVH reaction; P.O., daily for 13 days, mouse",12.5 mg./kg. × 13
O=c1c2cccc3cccc(c32)c2nc3cc(C(F)(F)F)ccc3n12 [11-trifluoromethyl(p-toluenesulfonate salt)],MED (minimum effective dose: lowest drug dose producing 75 percent or greater antibody suppression),antibody production,3.1 mg./kg. × 9
"O=c1c2cccc3cccc(c32)c2nc3cc(Br)ccc3n12 [11-bromo, 11-bromo-7H-benzimidazo[2,1-a]benz[de]isoquinoline-7-one]",minimal effective dose,antibody titer; [3],12.5 mg/kg
same,minimal effective dose,antibody production,1.6 mg/kg
same,minimal effective dose,GVH reaction; [4],< 25 mg/kg
"CC(C(=O)O)c1cccc(Oc2ccccc2)c1 (stereo not shown) [Fenoprofen, reference compound]",% Inhibition of uninjected paw volume inflammation (AUC),"[1]; Test 1, 40 mg./kg. P.O. × 24",44.0%
same,% Inhibition of uninjected paw volume inflammation (AUC),"[1]; Test 2, 40 mg./kg. P.O. × 24",60.7%
